From patent US8648116B2, “Derivatives of N-(arylamino) sulfonamides including polymorphs as inhibitors of MEK as well as compositions, methods of use and methods for preparing the same” (Ardea Biosciences, Inc., priority 2005, dated 2014) come the findings set out here.

SMILES strings stand for the structures. pEC50: −log10 of the molar value. Where “and” joins values, the source holds several entries; their conditions need not be identical. Equal values may be shown once.

In one test the test system is orthotopic HT-29 human colorectal adenocarcinoma. The test can be described thus: Growth response of orthotopic HT-29 colon tumors in nude mice. The class given is in vivo, BALB/c nu/nu mice. The conditions noted are these: 75 mg/kg i.v. once per week. How it is done: Female BALB/c nu/nu mice (University of Adelaide, Waite Campus, SA, Australia), aged 7-12 weeks, with a body weight range: of 16.58-25.39 g (mean 21.52 g) were used for the study. The mice were divided into 6 Study groups (4 treatment groups and 2 control groups) as follows: • Number of Mice per Group: 10 in Groups 1 to 5 inclusive • 9 in ‘Take-Rate’ Control Group (Group 6)
HT-29 human colorectal adenocarcinoma cells (Passage 4 from working stock VP-Stock 325) were cultured in RPMI1640 cell culture medium, which was supplemented with 10% FBS and penicillin-streptomycin (501 U/mL final concentration). The cells were harvested by trypsinisation, washed twice in HBSS and counted. The cells were then resuspended in HESS and adjusted to a final volume containing 2×10^8 cells/mL. Prior to inoculation, the incision site was liberally swabbed with alcohol and an incision made through the abdominal wall to expose the caecum wall. The needle was introduced through the surface of the caecum wall where 5 μL of cells (1×10^6 cells) were discharged.
A stock solution was prepared weekly and stored at 4° C. Dosing solutions were prepared on each day of administration.
Caecum and tumor wet weight were measured when each were excised post-mortem on the termination day of the study. At the termination of the study, the caecum was excised from all mice in each study group and weighed with the tumors intact. The tumors were then excised from the caecum and weighed.
A two-sample t-test was used to determine the significance in body weight change within a treatment group between Day 0 and the termination day of the study. […] In these groups, a two-sample t-test was used to determine the significance in body weight change within a treatment group between Day 0 and the final treatment day of the study, and between the last treatment day and the termination day of the study.
A One-Way Analysis of Variance (ANOVA) (All Pairwise Multiple Comparison Procedure and Multiple Comparison versus Control Group) was performed on the caecum weight and tumor weight data at the end of the study.
`O=c1[nH]cc(F)c(=O)[nH]1` [5-Fluorouracil, reference compound]: the “weight of the caecum and HT-29 tumors” value was “no effect”.

The same test, now with this note: 5FU 75 mg/kg, individual animals; listed as 5FU.
Take `O=c1[nH]cc(F)c(=O)[nH]1` [5-Fluorouracil, reference compound]: the “Caecum Weight” value was 0.355 g and 0.199 g and 0.360 g and 0.284 g and 0.421 g and 0.706 g and 0.415 g and 0.327 g and 0.237 g and 0.377 g; the “Tumour Weight” value was 0.245 g and 0.001 g and 0.000 g (3×) and 0.010 g and 0.329 g and 0.130 g and 0.079 g and 0.003 g.

The same test, now with this note: 5FU 75 mg/kg, mice surviving to final day.
Take `O=c1[nH]cc(F)c(=O)[nH]1` [5-Fluorouracil, reference compound]: the “Average Caecum Weight” value amounted to 0.391 g and the “Average Tumour Weight” value turned out to be 0.069 g.

The next test concerns phosphorylated ERK in MDA-MB-231 breast cancer cells. The test can be described thus: Generation of EC50 data: Western blotting for phosphorylated ERK in EGF-stimulated cells. Particulars: EC50 class. The class given is cell-based. The method, then:
Effects of compounds in the cell were determined by Western blotting for phosphorylated ERK. MDA-MB-231 breast cancer cells were plated in a 48 well plate at 20,000 cells per well and grown in a 37° humidified CO2 incubator. The following day, the growth media (DMEM+10% fetal bovine serum) was removed and replaced with starve media (DMEM+0.1% fetal bovine serum). Cells were incubated in the starve media for sixteen hours and then treated with a range of compound concentrations for thirty minutes. After incubation with compound, cells were stimulated with 100 ng/ml EGF for five minutes. The cells were then lysed and analyzed by Western blot using a monoclonal antibody raised to phosphorylated ERK. The signal was amplified using a secondary antibody conjugated to a near-IR dye and detected on a Licor Odyssey scanner.
Background: A western blot detects proteins with antibodies after separation by electrophoresis.
By pEC50 is commonly meant the EC50 on a negative log10 scale, so that one unit is a factor of ten. Take `COc1cc(F)c(F)c(Nc2ccc(I)cc2F)c1NS(=O)(=O)C1(CC(O)CO)CC1` (racemic) [Eg. 97 (Racemic), N-(3,4-difluoro-2-(2-fluoro-4-iodophenylamino)-6-methoxyphenyl)-1-(2,3-dihydroxypropyl)cyclopropane-1-sulfonamide]: the negative-log EC50 (pEC50) is > 8.70. On the same count and under the same terms, then `COc1cc(F)c(F)c(Nc2ccc(I)cc2F)c1NS(=O)(=O)C1(C[C@H](O)CO)CC1` [Eg. 98 (S isomer)], with > 8.70. On the same count and under the same terms, then `COc1cc(F)c(F)c(Nc2ccc(I)cc2F)c1NS(=O)(=O)C1(C[C@@H](O)CO)CC1` [Eg. 99 (R isomer), N—(R)-(3,4-difluoro-2-(2-fluoro-4-iodophenylamino)-6-methoxyphenyl)-1-(2,3-dihydroxypropyl)cyclopropane-1-sulfonamide], with 7.82 to 8.70.

The same test, now with this note: Homo sapiens; EC50 classes per legend (pERK, MDA-MB-231 cells); classes D and F also cite IC50.
Turning to `O=S(=O)(Nc1ccc(F)c(F)c1Nc1ccc(I)cc1F)C1(CC(O)CO)CC1` (racemic) [Example 1018], the pEC50 was > 8.70. The same measure, in the same setting: then `COc1cc(F)c(F)c(Nc2ccc(I)cc2F)c1NS(=O)(=O)C1(CC(O)CO)CC1` (racemic) [Example 1019], with > 8.70; and `O=S(=O)(Nc1c(F)cc(F)c(F)c1Nc1ccc(I)cc1F)C1(CC(O)CO)CC1` (racemic) [Example 1020], with > 8.70. The same measure, in the same setting: then `CS(=O)(=O)Nc1ccc(F)c(F)c1Nc1ccc(I)cc1F` [Example 1000], with > 8.70; and `O=S(=O)(Nc1ccc(F)c(F)c1Nc1ccc(I)cc1F)C1CC1` [Example 1001], with > 8.70; and `CC(C)S(=O)(=O)Nc1ccc(F)c(F)c1Nc1ccc(I)cc1F` [Example 1002], with 7.82 to 8.70.

Consider `CCCCS(=O)(=O)Nc1ccc(F)c(F)c1Nc1ccc(I)cc1F` [Example 1003], for which the pEC50 is 7.00 to 7.82.

In turn, `O=S(=O)(Nc1c(F)cc(F)c(F)c1Nc1ccc(I)cc1F)C1CC1` [Example 1004] gave a pEC50 of 7.00 to 7.82. Consider `O=S(=O)(Nc1ccc(F)c(F)c1Nc1ccc(I)cc1F)c1cccs1` [Example 1005], for which the pEC50 is 7.00 to 7.82. As for `O=S(=O)(Nc1ccc(F)c(F)c1Nc1ccc(I)cc1F)c1ccco1` [Example 1006], the pEC50 is 7.00 to 7.82. The same measure, in the same setting: then `O=S(=O)(Nc1ccc(F)c(F)c1Nc1ccc(I)cc1F)C1CCCC1` [Example 1007], with 7.00 to 7.82. `O=S(=O)(Nc1ccc(F)c(F)c1Nc1ccc(I)cc1F)C1CCCCC1` [Example 1008] had a pEC50 of 7.00 to 7.82. Same read-out and setting: then `CC(C)(C)S(=O)(=O)Nc1ccc(F)c(F)c1Nc1ccc(I)cc1F` [Example 1009], with 7.00 to 7.82; and `COc1cc(F)c(F)c(Nc2ccc(C)cc2C)c1NS(C)(=O)=O` [Example 1010], with > 8.70.

Take `Cc1ccc(S(=O)(=O)Nc2ccc(F)c(F)c2Nc2ccc(I)cc2F)s1` [Example 1011]: the pEC50 was 7.00 to 7.82. Regarding `CC1(S(=O)(=O)Nc2ccc(F)c(F)c2Nc2ccc(I)cc2F)CC1` [Example 1012], the pEC50 is 7.82 to 8.70.

As for `COc1cc(F)c(F)c(Nc2ccc(I)cc2F)c1NS(=O)(=O)C1CC1` [Example 1013], the pEC50 is 7.82 to 8.70.

`O=S(=O)(Nc1ccc(F)c(F)c1Nc1ccc(I)cc1F)c1ccccc1` [Example 1014] gave a pEC50 of 7.00 to 7.82. Still for that read-out and setting: then `O=S(=O)(Nc1ccc(F)c(F)c1Nc1ccc(I)cc1F)c1ccccc1F` [Example 1015], with < 7.00; and `O=S(=O)(Nc1ccc(F)c(F)c1Nc1ccc(I)cc1F)c1ccsc1` [Example 1016], with 7.00 to 7.82; and `Cc1cc(I)ccc1Nc1c(NS(=O)(=O)C2CC2)ccc(F)c1F` [Example 1017], with 7.82 to 8.70. Regarding `COc1cc(F)c(F)c(Nc2ccc(I)cc2F)c1NS(=O)(=O)C1(C[C@H](O)CO)CC1` [Example 1021], the pEC50 is > 8.70. Take `COc1cc(F)c(F)c(Nc2ccc(I)cc2F)c1NS(=O)(=O)C1(C[C@@H](O)CO)CC1` [Example 1022]: the pEC50 was 7.82 to 8.70. Still for that read-out and setting: to `O=S(=O)(Nc1c(F)cc(F)c(F)c1Nc1ccc(I)cc1F)C1(C[C@H](O)CO)CC1` [Example 1023] belongs 7.82 to 8.70; to `O=S(=O)(Nc1c(F)cc(F)c(F)c1Nc1ccc(I)cc1F)C1(C[C@@H](O)CO)CC1` [Example 1024], 7.82 to 8.70. Still for that read-out and setting: then `COc1cc(F)c(F)c(Nc2ccc(I)cc2F)c1NS(=O)(=O)C1CCC1` [Example 1025], with 7.82 to 8.70; and `COc1cc(F)c(F)c(Nc2ccc(I)cc2F)c1NS(=O)(=O)C1(CCO)CC1` [Example 1026], with > 8.70. In the case of `O=S(=O)(Nc1ccc(F)c(F)c1Nc1ccc(I)cc1F)C1(CCO)CC1` [Example 1027], the pEC50 was > 8.70. In the case of `COc1cc(F)c(F)c(Nc2ccc(I)cc2F)c1NS(=O)(=O)C1(CC(CO)CO)CC1` [Example 1028], the pEC50 was > 8.70. For the molecule `CCc1cc(F)c(F)c(Nc2ccc(I)cc2F)c1NS(=O)(=O)C1(CC(O)CO)CC1` (stereo not shown) [Example 1029], the negative-log EC50 (pEC50) is 7.00 to 7.82.

For the molecule `COCCOc1cc(F)c(F)c(Nc2ccc(I)cc2F)c1NS(=O)(=O)C1(CC(O)CO)CC1` (stereo not shown) [Example 1030], the pEC50 was 7.00 to 7.82.

The next test concerns orthotopic Hep3B2.1-7 human hepatic carcinoma. The test can be described thus: Growth response of orthotopic Hep3B tumors in nude mice. The conditions noted are these: 5FU 75 mg/kg i.v. Day 0, 7 and 14. The class given is in vivo, BALB/c nu/nu mice. The method, then:
Female BALB/c nu/nu mice (University of Adelaide, Waite Campus, SA, Australia), aged 10-14 weeks, with a body weight range: of 19.1-29.94 g (mean 22.95 g) were used for the study. The mice were divided into 6 Study groups (4 treatment groups and 2 control groups) as follows: • Number of Mice per Group: 10 in Groups 1 to 5 inclusive • 15 in ‘Take-Rate’ Control Group (Group 6)
Hep3B human hepatic carcinoma cells (Passage 2 from working stock VP-Stock 353) were cultured in RPMI1640 cell culture medium, which was supplemented with 10% FBS and penicillin-streptomycin (501 U/mL final concentration). The cells were harvested by trypsinisation, washed twice in HBSS and counted. The cells were then resuspended in HBSS:Matrigel (1:1, v/v) and adjusted to a final volume containing 1×10^8 cells/mL. Prior to inoculation, the incision site was liberally swabbed with alcohol and an incision made through the abdominal wall to expose the liver. The needle was introduced through the surface of the liver where 10 μL of cells (1×10^6 cells) were discharged. The needle was held in this position for approximately 30 seconds to allow the Matrigel® to polymerize in order to avoid leakage of tumor cells into the abdominal cavity.
Treatment commenced 14 days post-inoculation. On Day 7 of the study (21 days post-inoculation), all mice from the ‘Take-Rate’ control group were culled and the livers visually assessed for the presence of tumors.
A stock solution was prepared weekly and stored at 4° C. Dosing solutions were prepared on each day of administration. […] The compound was administered at doses of 2, 10 and 50 mg/kg.
Liver and tumor wet weight were measured when each were excised post-mortem on the termination day of the study. At the termination of the study, livers were excised from all mice in each study group and weighed. The number of visible tumors, if present, was counted. These tumors were removed from the liver and weighed.
A One-Way Analysis of Variance (ANOVA) (All Pairwise Multiple Comparison Procedure and Multiple Comparison versus Control Group) was performed on liver weight and tumor weight data at the end of the study. […] The same statistical analyses were performed on the data for the tumor-bearing mice in the study.
In the case of `O=c1[nH]cc(F)c(=O)[nH]1` [5-Fluorouracil, reference compound], the “No. of Mice with Tumors (out of 10)” value is 4.

Still in this test, the particulars now being: 5FU 75 mg/kg i.v. Day 0, 7 and 14, tumor-bearing mice.
Consider `O=c1[nH]cc(F)c(=O)[nH]1` [5-Fluorouracil, reference compound], for which the “Average Liver Weight” value is 1.217 g and the “Average Tumor Weight” value worked out at 0.143 g.

The same test, now with this note: tumor-bearing mice, 75 mg/kg i.v. once per week.
On to `O=c1[nH]cc(F)c(=O)[nH]1` [5-Fluorouracil, reference compound], for which the “average weight of the tumors vs Vehicle Control” value was “significantly different”.

The same test, now with this note: tumor-bearing mice, 75 mg/kg i.v. once per week; p<0.05.
Regarding `O=c1[nH]cc(F)c(=O)[nH]1` [5-Fluorouracil, reference compound], the “average weight of the liver vs Vehicle Control” value is listed as “significantly different”.

The test system of a further test is MDA pERK. As to the kind of experiment: MDA pERK ELISA. The test is classed as cell-based.
Settings: not given
Background: In an ELISA, binding on a coated surface is turned into a signal by an enzyme label.
For the molecule `O=S(=O)(Nc1ccc(F)c(F)c1Nc1ccc(-c2cn[nH]c2)cc1F)C1CC1` [Example 0497618], the pEC50 is < 6.70.

Take `Cn1cc(-c2ccc(Nc3c(NS(=O)(=O)C4CC4)ccc(F)c3F)c(F)c2)cn1` [Example 0497620]: the pEC50 was < 6.70. The same measure, in the same setting: then `O=S(=O)(Nc1ccc(F)c(F)c1Nc1ccc(-c2cc[nH]n2)cc1F)C1CC1` [Example 0497654], with 6.70 to 7.00; and `O=S(=O)(Nc1ccc(F)c(F)c1Nc1ccc(-c2ccncc2)cc1F)C1CC1` [Example 0497688], with < 6.70.

As for `O=S(=O)(Nc1ccc(F)c(F)c1Nc1ccc(-c2cccnc2)cc1F)C1CC1` [Example 0497689], the pEC50 was < 6.70.
